Reference: PubChem BioAssay AID602380 (Sanford-Burnham Center for Chemical Genomics, 2012)
Active and inactive are the calls of the source. No rule for the calls is given here.

Assay: TIM10 isogenic strain growth inhibitors – luminescence, S. cerevisiae, counter-screen for tim23-1 inhibitor project, SAR follow-up (AID 602380)
Conditions: S. cerevisiae TIM10 isogenic control strain, BacTiter-Glo growth luminescence

SMILES	IC50
Cc1ccc2nc(N3CCN(S(=O)(=O)C4CC4)CC3)[nH]c2c1	49.4 µM
O=C(O)c1cccnc1SCc1cc(=O)n2cc(Br)ccc2n1	> 99 µM (inactive)
CN(C(=O)c1cccc(S(C)(=O)=O)c1)c1c(N)n(Cc2ccccc2)c(=O)[nH]c1=O	> 99 µM (inactive)
Cc1ccc(/C(N)=N/OC(=O)c2ccccc2)cc1F	1.37 µM
Cc1cc(OCC(=O)O/N=C(\N)Cc2ccc(Cl)cc2)ccc1Br	2.1 µM
Cc1nc2scc(C)n2c(=O)c1S(=O)(=O)Nc1ccc(OC(F)(F)F)cc1	21.6 µM
Cc1nn(Cc2cccc(C(=O)O/N=C(\N)c3ccc(Cl)cc3)c2)c(C)c1Br	1.7 µM
Cc1nc2scc(C)n2c(=O)c1S(=O)(=O)Nc1cc(C(F)(F)F)ccc1Cl	79.2 µM
O=C(Nc1ccn[nH]1)c1ccc(Br)cc1Cl	> 99 µM (inactive)
Cc1ccc(-c2cc(NC(=O)c3c(C)noc3C)nc(-c3ccccc3)c2)cc1	> 99 µM (inactive)
O=C(CSCc1ccccc1)Nc1cc(S(=O)(=O)N2CCOCC2)ccc1Oc1ccccc1	> 99 µM (inactive)
O=C1OC(c2ccccc2)=N/C1=C\C=C\c1ccco1	6.78 µM
Cc1nc2sc(C)c(C)n2c(=O)c1S(=O)(=O)Nc1ccc(Br)cc1	> 99 µM (inactive)
Cc1nc2scc(C)n2c(=O)c1S(=O)(=O)Nc1cccc(C(F)(F)F)c1	35.6 µM
N#Cc1c(-c2ccccc2)cc(-c2ccc(O)cc2)nc1N	4.52 µM
Cc1nc2scc(C)n2c(=O)c1S(=O)(=O)Nc1ccc(Oc2ccc(Cl)cc2)cc1	> 99 µM (inactive)
Cc1nc2scc(C)n2c(=O)c1S(=O)(=O)Nc1ccc(N2CCOCC2)c(Cl)c1	> 99 µM (inactive)
Cc1ccc(Nc2nc(-c3cccnc3)nc3ccccc23)cc1	4.04 µM
NC(=O)C1CCN(c2nc(-c3cccnc3)nc3ccccc23)CC1	> 99 µM (inactive)
Cc1ccc(C2=NNC(c3ccc(Cl)cc3Cl)S2)cc1 (centres undefined)	5.15 µM

SMILES	IC50
Cc1noc(C)c1S(=O)(=O)Nc1ccc(-c2cn3c(n2)SCC3)cc1	79.2 µM
Cc1nc2scc(C)n2c(=O)c1S(=O)(=O)Nc1ccc(CN2CCCCC2)cc1	> 99 µM (inactive)
Cc1ccc2nc(CS(=O)(=O)c3ncccc3Cl)cc(=O)n2c1	> 99 µM (inactive)
O=C(NN=C/C=C\c1ccco1)c1cccs1	4.48 µM
Cc1nc2scc(C)n2c(=O)c1S(=O)(=O)Nc1ccc(N2CCN(S(C)(=O)=O)CC2)cc1	> 99 µM (inactive)
N/C(=N\OC(=O)c1ccc(Cl)cc1)c1cccc(CS(=O)(=O)c2ccccn2)c1	19.2 µM
CC(C)(C)c1csc(NC(=O)c2ccc(Cl)s2)n1	9.68 µM
N/C(=N\OC(=O)c1ccc2ncsc2c1)c1ccc(Cl)cc1Cl	2.57 µM
CCn1c(N2CCN(S(=O)(=O)c3ccc(OC)cc3)CC2)nc2ccccc21	15.8 µM
COc1ccc(/C(N)=N/OC(=O)c2ccc(C(F)(F)F)cc2)c(OC)c1	72.7 µM
N#C/C(=C\c1ccc(Cl)cc1)C(=O)Nc1cccnc1	14.2 µM
Cc1nc2scc(C)n2c(=O)c1S(=O)(=O)Nc1ccc(N2CCN(C(=O)C(C)C)CC2)cc1	> 99 µM (inactive)
Cc1c2c(n(Cc3ccco3)c1C)N=CN1CCS(=O)(=O)N=C21	48.5 µM
CN1CCc2nc3sc(C(=O)C45CC6CC(CC(C6)C4)C5)c(N)c3cc2C1	42.1 µM
Cc1ccc(S(=O)(=O)Cc2cc(=O)n3ccccc3n2)nc1	> 99 µM (inactive)
CCOc1cc2ccccc2cc1C(=O)O/N=C(\N)c1ccc(Cl)cc1	2.42 µM
N#Cc1c(-c2ccc([N+](=O)[O-])cc2)cc(-c2ccccc2)nc1N	> 99 µM (inactive)
Cc1nc2scc(C)n2c(=O)c1S(=O)(=O)Nc1ccc(Cl)c(C(F)(F)F)c1	91.1 µM
CCCN(C(=O)c1ccc([N+](=O)[O-])c(C)c1)c1c(N)n(Cc2ccccc2)c(=O)[nH]c1=O	> 99 µM (inactive)
